In ChEMBL document CHEMBL5528024, “Comprehensive and critical view on the anti-inflammatory and immunomodulatory role of natural phenolic antioxidants” (Eur J Med Chem, 2024):
Values after ≈ are worked out from the molar mass of the structure shown.

Assays:
[1] = organism: Rattus norvegicus; assay: Antioxidant activity in Vitamin E deficient rat model assessed as onset of ascorbate/Fe2+/ADP complex-initiated peroxidation delayed time by measuring onset of peroxidation (lag phase) at 0.5 mM by Thiobarbituric acid substance assay; format: functional
[2] = organism: Rattus norvegicus; assay: Antioxidant activity in Vitamin E deficient rat model assessed as onset of ascorbate/Fe2+/ADP complex-initiated peroxidation delayed time by measuring onset of peroxidation (lag phase) at 0.25 mM by Thiobarbituric acid substance assay; format: functional
[3] = system: Splenocyte; assay: Immunomodulatory activity in mouse splenocytes assessed as maximum effect in CD3+ T cell production at 4 microg/ml incubated for 24 hrs by flow cytometry relative to control; format: functional; conditions: dose 4 µg/ml
[4] = system: Splenocyte; assay: Immunomodulatory activity in mouse splenocytes assessed as maximum effect in CD4+ T cell production at 4 microg/ml incubated for 24 hrs by flow cytometry relative to control; format: functional; conditions: dose 4 µg/ml
[5] = molecular target: Alpha-synuclein (Homo sapiens, UniProt P37840); assay: Inhibition of wild type full length recombinant alpha-synuclein (unknown origin) expressed in Escherichia coli by spectrophotometric analysis
[6] = system: Mus musculus; assay: Antidiabetic activity in six hour fasted type 2 diabetic C57BL/6 db/db mouse assessed as decrease in fasting blood glucose level at 250 mg/kg,po for 4 weeks by Glucose analyzer; format: functional; set-up: scale not given: the % may be the effect or the level left
[7] = system: Leishmania major; assay: Antileishmanial activity against Leishmania major MHOM/IL/80/Friendlin assessed as reduction in parasite growth incubated for 24 hrs by resazurin dye based analysis; format: functional, organism-based
[8] = Inhibition of Lipoxygenase (unknown origin); set-up: species or system Homo sapiens
[9] = system: Rattus norvegicus; assay: Anti-inflammatory activity against serotonin-induced paw edema in Sprague-Dawley rat assessed as inhibition of paw edema at 10 mg/kg, po measured after 5 hrs relative to control; format: functional; set-up: scale not given: the % may be the effect or the level left

Q: With `O=c1c(O)c(-c2cc(O)c(O)c(O)c2)oc2cc(O)cc(O)c12` [MYRICETIN] as the compound, how does the Time [1] read?
A: 14.3 min

Q: What about the Time [2] of the same compound?
A: 12.6 min

Q: With `O=c1c(O)c(-c2ccc(O)c(O)c2)oc2cc(O)ccc12` [FISETIN] as the compound, how does the Activity [3] read?
A: 39.62%

Q: And the Activity [4]?
A: 28.92%

Q: With `COc1cc(/C=C/C(=O)O)ccc1O` [FERULATE] as the compound, how does the IC50 [5] read?
A: 13 µM

Q: For `O=C(/C=C/c1ccc(O)c(O)c1)O[C@@H]1C[C@](O)(C(=O)O)C[C@@H](O)[C@H]1O` [CHLOROGENIC ACID], which Activity [6] is on record?
A: 31%

Q: With `O=C(O)c1cc(O)c(O)c(O)c1` [GALLIC ACID] as the compound, how does the EC50 [7] read?
A: 5 µg/mL (≈ 29.4 µM)

Q: Which IC50 [8] does the source give for `COc1cc(/C=C/C(=O)CC(=O)/C=C/c2ccc(O)c(OC)c2)ccc1O` [CURCUMIN] here?
A: 45.3 µM

Q: With `O=c1oc2c(O)c(O)cc3c(=O)oc4c(O)c(O)cc1c4c23` [ELLAGIC ACID] as the compound, how does the EC50 [7] read?
A: 0.9 µg/mL (≈ 2.98 µM)

Q: With `COc1ccc2c(c1)c(CC(=O)O)c(C)n2C(=O)c1ccc(Cl)cc1` [INDOMETHACIN] as the compound, how does the Activity [9] read?
A: 34.2%
